test system: lung cancer cell line H1373 (high expression of PARP7); assay: Lung cancer cell proliferation inhibition experiment (CTG method); type: cell-based; conditions: H1373 cells, 144 hrs incubation, Cell Titer Glo

Compound	IC50 [µM]
COC[C@@H](COCCC(=O)N1CCN2c3ncc(C(F)(F)F)cc3OC[C@H]2C1)Nc1cn[nH]c(=O)c1C(F)(F)F (single isomer, unassigned) [Compound 66A]	0.0855
COC[C@@H](COCCC(=O)N1CCN2c3ncc(C(F)(F)F)cc3OC[C@@H]2C1)Nc1cn[nH]c(=O)c1C(F)(F)F (single isomer, unassigned) [Compound 66B]	0.0704
CC(=O)c1c(N[C@@H](C)COCCC(=O)N2CCN3c4ncc(C(F)(F)F)cc4OCC[C@H]3C2)cn[nH]c1=O (single isomer, unassigned) [Compound 70A]	0.0287
COc1ccc(Cn2ncc(N3CC[C@H]3COCCC(=O)N3CCN4c5ncc(C(F)(F)F)cc5N(C)C(=O)[C@@H]4C3)c(C(F)(F)F)c2=O)cc1 (single isomer, unassigned) [Compound 87A]	0.0058
COc1ccc(Cn2ncc(N3CC[C@H]3COCCC(=O)N3CCN4c5ncc(C(F)(F)F)cc5N(C)C(=O)[C@H]4C3)c(C(F)(F)F)c2=O)cc1 (single isomer, unassigned) [Compound 87B]	0.00535
C[C@H](COCCC(=O)N1CCN2c3ncc(C(F)(F)F)cc3N(C)C(=O)[C@@H]2C1)Oc1cn[nH]c(=O)c1C(F)(F)F [Compound 81C]	0.0192
C[C@H](COCCC(=O)N1CCN2c3ncc(C(F)(F)F)cc3N(C)C(=O)[C@H]2C1)Oc1cn[nH]c(=O)c1C(F)(F)F [Compound 81D]	0.0123

same assay, conditions: Homo sapiens, NCI-H1373, 144 h, H1373 cells, 144 hrs incubation, Cell Titer Glo

IC50 [µM]	Compound
0.203	C[C@@H](COCCC(=O)N1CCN2c3ncc(C(F)(F)F)cc3N(CC(F)(F)F)C(=O)C2C1)Nc1cn[nH]c(=O)c1C(F)(F)F (some centres unmarked) [Compound 8]
0.203	C[C@@H](COCCC(=O)N1CCN2c3ncc(C(F)(F)F)cc3NCCC2C1)Nc1cn[nH]c(=O)c1C(F)(F)F (some centres unmarked) [Compound 37]
0.108	C[C@@H](COCCC(=O)N1CCN2c3ncc(C(F)(F)F)cc3N(C)CC2C1)Nc1cn[nH]c(=O)c1C(F)(F)F (some centres unmarked) [Compound 39]
0.26	C[C@@H](COCCC(=O)N1CCN2c3ncc(C(F)(F)F)cc3N(C)CCC2C1)Nc1cn[nH]c(=O)c1C(F)(F)F (some centres unmarked) [Compound 40]
0.276	C[C@@H](COCCC(=O)N1CCn2c(cc3cc(C(F)(F)F)cnc32)C1)Nc1cn[nH]c(=O)c1C(F)(F)F [Compound 41]
0.138	C[C@@H](COCCC(=O)N1CCn2c(c(Cl)c3cc(C(F)(F)F)cnc32)C1)Nc1cn[nH]c(=O)c1C(F)(F)F [Compound 42]
0.105	Cc1c2n(c3ncc(C(F)(F)F)cc13)CCN(C(=O)CCOC[C@H](C)Nc1cn[nH]c(=O)c1C(F)(F)F)C2 [Compound 43]
0.185	C[C@@H](COCCC(=O)N1CCn2c(nc3cc(C(F)(F)F)cnc32)C1)Oc1cn[nH]c(=O)c1C(F)(F)F [Compound 49A]
0.296	C[C@@H](COCCC(=O)N1CCN2c3ncc(C(F)(F)F)cc3OC[C@H]2C1)Nc1cn[nH]c(=O)c1C(F)(F)F [Compound 53A]
0.214	C[C@@H](COCCC(=O)N1CCN2c3ncc(C(F)(F)F)cc3OC[C@@H]2C1)Nc1cn[nH]c(=O)c1C(F)(F)F [Compound 53B]
0.0797	C[C@@H](COCCC(=O)N1CCN2c3ncc(C(F)(F)F)cc3OCC2C1)Nc1cn[nH]c(=O)c1C(F)(F)F (some centres unmarked) [Compound 53]
0.0636	C[C@@H](COCCC(=O)N1CCN2c3ncc(C(F)(F)F)cc3OCCC2C1)Nc1cn[nH]c(=O)c1C(F)(F)F (some centres unmarked) [Compound 54]

Compound	IC50 [µM]
C[C@@H](COCCC(=O)N1CCN2c3ncc(F)cc3N(C)C(=O)[C@@H]2C1)Nc1cn[nH]c(=O)c1C(F)(F)F (single isomer, unassigned) [Compound 19A]	0.269
C[C@@H](COCCC(=O)N1CCN2c3ncc(Cl)cc3N(C)C(=O)[C@H]2C1)Nc1cn[nH]c(=O)c1C(F)(F)F (single isomer, unassigned) [Compound 20B]	0.0574
CCN1C(=O)[C@@H]2CN(C(=O)CCOC[C@H](C)Nc3cn[nH]c(=O)c3C(F)(F)F)CCN2c2ncc(Br)cc21 (single isomer, unassigned) [Compound 23A]	0.117

target: PARP7 enzyme (Homo sapiens (Human), UniProt Q7Z3E1); assay: PARP7 enzymatic experiment (HTRF assay); type: biochemical; conditions: 4PL fit
Sequence (Q7Z3E1 456-657): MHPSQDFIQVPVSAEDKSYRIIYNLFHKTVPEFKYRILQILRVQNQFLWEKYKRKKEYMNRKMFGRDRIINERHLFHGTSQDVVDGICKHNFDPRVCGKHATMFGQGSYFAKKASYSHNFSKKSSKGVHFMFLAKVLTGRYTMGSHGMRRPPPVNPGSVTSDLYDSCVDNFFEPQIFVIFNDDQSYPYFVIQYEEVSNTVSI

Compound	IC50 [µM]
C[C@@H](COCCC(=O)N1CCN2c3ncc(F)cc3N(C)C(=O)[C@@H]2C1)Nc1cn[nH]c(=O)c1C(F)(F)F (single isomer, unassigned) [Compound 19A]	0.0017
C[C@@H](COCCC(=O)N1CCN2c3ncc(Cl)cc3N(C)C(=O)[C@H]2C1)Nc1cn[nH]c(=O)c1C(F)(F)F (single isomer, unassigned) [Compound 20B]	0.00185
CCN1C(=O)[C@@H]2CN(C(=O)CCOC[C@H](C)Nc3cn[nH]c(=O)c3C(F)(F)F)CCN2c2ncc(Br)cc21 (single isomer, unassigned) [Compound 23A]	0.000804
CC(C)N1C(=O)[C@H]2CN(C(=O)CCOC[C@H](C)Nc3cn[nH]c(=O)c3C(F)(F)F)CCN2c2ncc(C(F)(F)F)cc21 (single isomer, unassigned) [Compound 24B]	0.00317
COC[C@@H](COCCC(=O)N1CCN2c3ncc(C(F)(F)F)cc3OC[C@H]2C1)Nc1cn[nH]c(=O)c1C(F)(F)F (single isomer, unassigned) [Compound 66A]	0.00205
COC[C@@H](COCCC(=O)N1CCN2c3ncc(C(F)(F)F)cc3OC[C@@H]2C1)Nc1cn[nH]c(=O)c1C(F)(F)F (single isomer, unassigned) [Compound 66B]	0.00182
CC(=O)c1c(N[C@@H](C)COCCC(=O)N2CCN3c4ncc(C(F)(F)F)cc4OCC[C@H]3C2)cn[nH]c1=O (single isomer, unassigned) [Compound 70A]	0.0015
C[C@@H](COCCC(=O)N1CCN2c3ncc(Br)cc3SCC[C@@H]2C1)Nc1cn[nH]c(=O)c1C(F)(F)F (single isomer, unassigned) [Compound 72B]	0.00724
C[C@@H](COCCC(=O)N1CCN2c3ncc(Cl)cc3SCC[C@H]2C1)Nc1cn[nH]c(=O)c1C(F)(F)F (single isomer, unassigned) [Compound 73B]	0.0179
C[C@@H](COCCC(=O)N1CCN2c3ncc(C(F)(F)F)cc3NC(=O)CC2C1)Nc1cn[nH]c(=O)c1C(F)(F)F (some centres unmarked) [Compound 1A]	0.0343
C[C@@H](COCCC(=O)N1CCc2c(c(=O)n(C)c3cc(C(F)(F)F)cnc23)C1)Nc1cn[nH]c(=O)c1C(F)(F)F [Compound 12]	0.00292
C[C@@H](COCCC(=O)N1CCN2c3nc(F)c(Cl)cc3N(C)C(=O)[C@H]2C1)Nc1cn[nH]c(=O)c1C(F)(F)F [Compound 14B]	0.0399
C[C@@H](COCCC(=O)N1CCN2c3ncc(C(F)(F)F)cc3N(C)C(=O)[C@@H]2C1)Nc1cn[nH]c(=O)c1Cl [Compound 31A]	0.0258
C[C@@H](COCCC(=O)N1CCN2c3ncc(C(F)(F)F)cc3N(C)C(=O)[C@H]2C1)Nc1cn[nH]c(=O)c1Cl [Compound 31B]	0.059
C[C@@H](COCCC(=O)N1CCN2c3ncc(C(F)(F)F)cc3N(C)C(=O)[C@@H]2C1)Nc1cn[nH]c(=O)c1Br [Compound 32A]	0.00825
C[C@@H](COCCC(=O)N1CCN2c3ncc(C(F)(F)F)cc3N(C)C(=O)[C@H]2C1)Nc1cn[nH]c(=O)c1Br [Compound 32B]	0.02
C[C@@H](COC[C@H](O)C(=O)N1CCN2c3ncc(Cl)cc3OCCC2C1)Nc1cn[nH]c(=O)c1C(F)(F)F (some centres unmarked) [Compound 64B]	0.00946
C[C@@H](COCCC(=O)N1CCN2c3ncc(C(F)(F)F)cc3[S@+]([O-])CC[C@@H]2C1)Nc1cn[nH]c(=O)c1C(F)(F)F [Compound 74A]	0.00216
C[C@@H](COCCC(=O)N1CCN2c3ncc(C(F)(F)F)cc3[S@+]([O-])CC[C@H]2C1)Nc1cn[nH]c(=O)c1C(F)(F)F [Compound 74B]	0.00223
C[C@@H](COCCC(=O)N1CCN2c3ncc(C(F)(F)F)cc3[S@@+]([O-])CC[C@@H]2C1)Nc1cn[nH]c(=O)c1C(F)(F)F [Compound 74C]	0.0554
C[C@@H](COCCC(=O)N1CCN2c3ncc(C(F)(F)F)cc3[S@@+]([O-])CC[C@H]2C1)Nc1cn[nH]c(=O)c1C(F)(F)F [Compound 74D]	0.0722
C[C@@H](COCCC(=O)N1CCN2c3ncc(C(F)(F)F)cc3S(=O)(=O)CC[C@@H]2C1)Nc1cn[nH]c(=O)c1C(F)(F)F [Compound 75A]	0.00364
C[C@@H](COCCC(=O)N1CCN2c3ncc(C(F)(F)F)cc3S(=O)(=O)CC[C@H]2C1)Nc1cn[nH]c(=O)c1C(F)(F)F [Compound 75B]	0.0135
C[C@@H](COCCC(=O)N1CCN2c3ncc(C(F)(F)F)cc3C(C)(O)CC2C1)Nc1cn[nH]c(=O)c1C(F)(F)F (some centres unmarked) [Compound 78]	0.00283
CC(COCCC(=O)N1CCN2c3ncc(Cl)cc3OCCC2C1)Oc1cn[nH]c(=O)c1C(F)(F)F (centres unmarked) [Compound 84]	0.00401

— patent publication US20240336629A1, “Tricyclic Derivatives Useful As PARP7 Inhibitors” (JACOBIO PHARMACEUTICALS CO., LTD., priority 2021, published 2024)
